These results are taken from US5686422A, “Synthetic inhibitors of mammalian collagenase” (Research Corporation Technologies, Inc., priority 1995, dated 1997).

Test [1] concerns the target T1, pig synovial collagenase (Sus scrofa, UniProt P21692).
T1 construct: pig synovial collagenase (0.04 μg protein); from tissue; host or cells: pig synovium (only from the enzyme's name; preparation not described)
T1 sequence (P21692 100-469): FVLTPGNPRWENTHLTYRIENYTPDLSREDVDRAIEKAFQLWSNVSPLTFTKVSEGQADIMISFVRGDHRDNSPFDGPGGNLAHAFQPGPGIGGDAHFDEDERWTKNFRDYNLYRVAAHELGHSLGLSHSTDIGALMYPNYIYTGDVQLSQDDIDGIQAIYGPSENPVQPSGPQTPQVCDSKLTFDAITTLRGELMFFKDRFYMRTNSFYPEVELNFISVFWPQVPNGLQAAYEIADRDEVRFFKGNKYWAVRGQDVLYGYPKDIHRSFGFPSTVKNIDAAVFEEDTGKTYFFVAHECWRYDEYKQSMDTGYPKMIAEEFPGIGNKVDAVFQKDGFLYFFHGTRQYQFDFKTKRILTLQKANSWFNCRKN
Briefly: Collagenase assay: degradation of type I collagen (SDS-PAGE/densitometry or spectrophotometric). In kind it is biochemical. How it is done:
Collagenase activity was determined after electrophoretic separation of degraded from undegraded type I collagen by polyacrylamide gel electrophoresis and densitometry as follows.
Acid-soluble calf skin collagen (0.25 mg/ml, approximately […]) was incubated at 35° C. for 1 hr with pig synovial collagenase (0.04 μg protein) in 0.05M tris-HCL, 0.2M NaCl, 0.25M glucose, 5 mM CaCl2, 10% dimethyl sulfoxide, pH 7.6 in a total reaction volume of 20 μL. Inhibitors were dissolved in dimethyl sulfoxide and the sulfhydryl titer determined in stock solutions immediately prior to use by the colorimetric procedure of Ellman [Ellman, G. L., Arch. Biochem. Biophys. 82: 70-77 (1959)]. At the end of the reaction period, the reactions were stopped by placing on ice and 20 μL sample dilution buffer was added [Laemmli, U. K., Nature (London) 227: 680-685 (1970)]. The samples were then placed in a boiling water bath for 2-5 minutes after which collagen degradation products were separated from undegraded collagen by sodium dodecyl sulfate-polyacrylamide electrophoresis according to the procedure of Laemmli [1970]. The electrophoretograms were fixed in isopropanol/acetic acid/water (100:40:300) and stained with 1% Coomassie Blue R-250. The percentage of collagen alpha chains degraded was estimated by scanning densitometry and integration of peak areas [Welgus et al., J. Biol. Chem. 256: 9511-9515 (1981)].
A spectrophotometric method was also utilized in some cases to determine collagenase activity [Lindy, S. et al., European J. Biochem. 156: 1-4 (1986)]. The conditions were the same as given above except that the reaction volume was 200 μL, the temperature was 37° C. and the enzyme concentration was 1.2 μg protein/ml. Stock solutions of inhibitors were prepared in 1 mM acetic acid in ethanol and the sulfhydryl titer determined colorimetrically by the method of Ellman […]. The reaction progress was monitored for 6-10 minutes by following the increase in absorbance at 227 nm that accompanies denaturation of the collagen fragments. Initial rates of collagen degradation were determined from the linear portion of the progress curves.

Test [2] has as its target T2, Collagenase, purified from sodium hydroxide burned rabbit corneal tissue (Oryctolagus cuniculus, UniProt P13943).
T2 sequence (P13943 99-468): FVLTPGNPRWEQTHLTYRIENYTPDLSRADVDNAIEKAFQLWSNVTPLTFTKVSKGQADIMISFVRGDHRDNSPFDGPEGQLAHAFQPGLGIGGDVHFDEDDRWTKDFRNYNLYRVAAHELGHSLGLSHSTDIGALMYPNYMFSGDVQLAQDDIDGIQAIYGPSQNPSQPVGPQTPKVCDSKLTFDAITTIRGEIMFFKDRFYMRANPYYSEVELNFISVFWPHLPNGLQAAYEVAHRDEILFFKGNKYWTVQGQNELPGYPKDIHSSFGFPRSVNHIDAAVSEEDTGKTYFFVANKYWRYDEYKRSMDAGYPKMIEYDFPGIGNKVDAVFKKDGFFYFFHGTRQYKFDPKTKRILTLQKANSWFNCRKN
In words: Qualitative SDS-PAGE assay of collagen degradation by corneal collagenase. Format: biochemical. The method, then:
Collagenase, purified from sodium hydroxide burned rabbit corneal tissue, was placed in a reaction mixture containing Type I collagen (0.4 mg/ml), 0.005M Tris-HCl, 0.2M NaCl, 0.25M glucose, pH 7.7. Reactions were initiated by adding the enzyme to the reaction mixture; inhibitory potency was estimated by running separate reaction mixtures in which the peptide HSCH2 CH[CH2 CH(CH3)2 ]--CO-Phe-Ala-NH2, made in accordance with Example 2, was added in varying concentrations to the mixture and incubated for 3 hours at 30° C. Other compounds were assayed for inhibitory potency in a similar manner. Reaction mixtures were quenched by placing them on ice and then adding one volume of sample dilution buffer followed by boiling the mixtures in a water bath for 5 minutes. Collagen degradation products were resolved from undegraded collagen by sodium dodecylsulfate-polyacylamide gel electrophoresis (SDS-PAGE) followed by staining with Coomassie Blue R-250. The SDS-PAGE assay was used to qualitatively evaluate the inhibitory capacity of the compounds tested. An estimate of inhibitory potency was then noted by visualizing the concentration range which produced 50% inhibition of collagen degradation.
The results of this qualitative assay are expressed as an IC50 range (Table II). For example, doxycyline's IC50 is 0.2 to 1.0 mM. That is, a doxycycline concentration of 0.2 to 1.0 mM is required to obtain a 50% inhibition of collagen degradation. These estimated ranges were then used to predict the inhibitor concentrations tested in the quantitative analysis detailed below.

Test [3] addresses T3, PA elastase (Pseudomonas aeruginosa, UniProt P14756).
T3 construct: made in house; host or cells: native secreted enzyme from a virulent Pseudomonas aeruginosa strain grown on tryptone glucose extract agar
Briefly: biochemical. The method, then:
Pseudomonas aeruginosa proteases were obtained by overnight incubation of virulent strain of Pseudomonas aeruginosa (PA) on tryptone glucose extract agar.
The PA elastase was tested in accordance with the procedures analogous to those conducted on purified collagenase in Example 5.
Example 7 was repeated using three corneal ulceration treatments of the prior art: Tetracycline, minocycline and doxycycline.

For test [4], the target named is T2, Collagenase, purified from sodium hydroxide burned rabbit corneal tissue. Briefly: Quantitative fluorometric assay with fluorogenic Dnp-peptide substrate. As to conditions: Dnp-substrate 20 uM, 37° C. for 2 to 3 minutes. Format: biochemical. The method, then: Quantitative determination of collagenase activity was carried out with a fluorogenic peptide substrate, Dnp-Pro-Leu-Gly-Leu-Trp-Ala-D-Arg-NH2,which collagenase cleaves to produce Dnp-Pro-Leu-Gly and Leu-Trp-Ala-D-Arg-NH2. The rate of production of the tetrapeptide was monitored with an AMINCO-BOWMAN® spectrofluorometer (excitation wavelength of 280 nm and emission wavelength of 346 nm). This test was repeated using high performance liquid chromatography (HPLC) to separate and detect the two cleaved collagenase products.
Reaction mixtures for both the fluorometric and HPLC assays contained 0.05M Tris-HCl, 0.2M NaCl, 10 mM CaCl2 and Dnp-substrate 20 uM, pH 7.7. The peptide of Example 2 was added to the assay mixtures at varying concentrations. The incubation conditions differed between the two assays; the fluorometric reaction mixtures were incubated at 37° C. for 2 to 3 minutes whereas the HPLC reaction mixtures were incubated at 37° C. for 3 hours. This was necessary because the HPLC assay was not as sensitive in detecting the substrate cleavage products as the fluorometric assay. IC50 values were interpolated from plots of log[Ao /Ai)-1[ vs. log[Inhibitor], where Ao is the activity observed in the absence of inhibitor and Ai is the activity observed in the presence of inhibitor at concentration i.

Where [5] appears, read: mixture containing approximately equal amounts of the two diastereomers, read-out: IC50 (uM), diastereomers not resolved.
The mark [6] stands for this setting: SDS-PAGE, visual estimate, Type I collagen 0.4 mg/ml, 3 hours at 30° C.
Where [7] appears, read: fast-eluting diastereomer (C18 reversed phase), approximate concentration giving 50% inhibition of collagen degradation, read-out: IC50 (uM) Fast Isomer.
[8] abbreviates: slow-eluting diastereomer (C18 reversed phase), approximate concentration giving 50% inhibition of collagen degradation, read-out: IC50 (uM) Slow Isomer.

Read-outs that look alike come from different tables or passages of the source.

T3 sequence (P14756 198-498): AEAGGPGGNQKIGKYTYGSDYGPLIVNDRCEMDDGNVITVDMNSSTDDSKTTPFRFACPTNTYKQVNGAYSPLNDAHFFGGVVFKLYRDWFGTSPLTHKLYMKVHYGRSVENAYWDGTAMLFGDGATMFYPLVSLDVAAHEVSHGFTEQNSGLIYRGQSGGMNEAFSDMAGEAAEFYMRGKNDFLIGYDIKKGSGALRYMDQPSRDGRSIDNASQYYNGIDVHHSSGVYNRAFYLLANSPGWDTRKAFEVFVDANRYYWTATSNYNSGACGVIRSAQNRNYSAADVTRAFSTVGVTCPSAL

What is called IC50 is the concentration at which inhibition is half-maximal. With `CCOC(=O)[C@H](C)NC(=O)[C@H](CCCCNC(=O)OC(C)(C)C)NC(=O)C(CS)CC(C)C` (some centres unmarked), in test [1] (setting [5]), the IC50 was found to be 4 µM.

Turning to `CC(=O)N[C@@H](CS)C(=O)O` [Acetylcysteine, acetylcysteine], in test [2] (setting [6]), the “Estimated IC50 Range” value was 10000 to 30000 µM.

As to `CC(C)CC(CS)C(=O)N[C@@H](Cc1ccccc1)C(=O)N[C@@H](C)C(N)=O` (stereo partly drawn) [Compound 3, 2-[(R,S)-Mercaptomethyl]-4-methylpentanoyl-L-phenylalanyl-L-alanine amide], the 50% inhibitory concentration (IC50) was determined as 0.3 µM in test [1] (setting [7]), 0.04 µM in test [1] (setting [8]) and 0.3 µM in test [3].

Take `CC(C)CC(CS)C(=O)N[C@@H](Cc1c[nH]c2ccccc12)C(=O)N[C@@H](C)C(N)=O` (some centres unmarked) [Compound 4, HSCH2 CH[CH2 CH(CH3)2]COTrpAlaNH2]: the IC50 in test [1] (setting [5]) was 0.05 µM.

In the case of `CC(C)CC(CS)C(=O)N[C@@H](Cc1ccccc1)C(=O)N[C@@H](CC(C)C)C(N)=O` (stereo partly drawn) [Compound 5, 2-[(R,S)-Mercaptomethyl]-4-methylpentanoyl-L-phenylalanyl-L-leucine amide], the IC50 is 10 µM in test [1] (setting [7]) and 4 µM in test [1] (setting [8]).

`CC(C)CC(CS)C(=O)N[C@@H](Cc1ccccc1)C(=O)N[C@@H](Cc1ccccc1)C(N)=O` (some centres unmarked) [Compound 6, HSCH2 CH[CH2 CH(CH3)2]COPhePheNH2]: the concentration for half-maximal inhibition (IC50) in test [1] (setting [5]) is 2 µM.

`CC(C)CC(CS)C(=O)N[C@@H](Cc1ccc2ccccc2c1)C(=O)N[C@@H](C)C(N)=O` (some centres unmarked) [Compound 7, HSCH2 CH[CH2 CH(CH3)2]CCNalAlaNH2]: the IC50 in test [1] (setting [5]) was 0.03 µM.

Regarding `N[C@@H](CS)C(=O)O` [Cysteine, cysteine], in test [2] (setting [6]), the “Estimated IC50 Range” value is 3000 to 10000 µM.

With `C[C@H]1c2cccc(O)c2C(=O)C2=C(O)[C@]3(O)C(=O)C(C(N)=O)=C(O)[C@@H](N(C)C)[C@@H]3[C@@H](O)[C@@H]21` [Doxycycline, doxycycline], in test [2] (setting [6]), the “Estimated IC50 Range” value was 200 to 1000 µM. Further, the IC50 in test [3] was determined as 110 µM.

In test [3], `CN(C)c1ccc(O)c2c1C[C@H]1C[C@H]3[C@H](N(C)C)C(O)=C(C(N)=O)C(=O)[C@@]3(O)C(O)=C1C2=O` [Minocycline, minocycline] came in with an IC50 of 260 µM.

As to `O=C1O[C@H]([C@@H](O)CO)C([O-])=C1O.[Na+]` [Sodium Ascorbate], the “Estimated IC50 Range (mM)” value in test [2] (setting [6]) is “No Inhibition”.

Regarding `O=C([O-])CC(O)(CC(=O)[O-])C(=O)[O-].[Na+].[Na+].[Na+]` [Sodium Citrate, sodium citrate], the “reversal of inhibition by excess Ca++” value in test [2] (SDS-PAGE assay, footnote to Table II) is “Reversed by addition of excess Ca++”. Besides, the “Estimated IC50 Range” value in test [2] (setting [6]) is 10000 to 30000 µM. Moreover, 45000 µM corresponded to half-maximal inhibition in test [4] (IC50).

For `CN(C)[C@@H]1C(O)=C(C(N)=O)C(=O)[C@@]2(O)C(O)=C3C(=O)c4c(O)cccc4[C@@](C)(O)[C@H]3C[C@@H]12` [Tetracycline, tetracycline], the “Estimated IC50 Range” value in test [2] (setting [6]) was 1000 to 2000 µM. In test [3], this molecule returned a half-inhibitory concentration (IC50) of 660 µM.
